Laboratory results: US20050209151A1, “Use of peptides” (priority 1999, published 2005)
Where no end group is shown, it is not given here.

Key:
[1] = tested on: β-endorphin concentration in blood; assay: β-endorphin concentration in blood after intraventricular administration of PrRP-31; format: in vivo, Wistar rats; conditions: PrRP-31 1, 3 or 10 nmol intraventricular
Experimental: (§1) Adult male Wistar rats (body weight 350 to […] at surgery) were anesthetized with intraperitoneal administration of 50 mg/kg pentobarbital and immobilized in stereotaxic instruments. The incisor bar was set 3.3 mm below the interaural line. The skull was exposed, and a hole was drilled with a dental drill to implant a guide cannula AG-12 (inside diameter of 0.4 mm, outside diameter of 0.5 mm, by Eicom) in the third ventricle. Anchor screws were implanted in four surrounding locations. The tip of the stainless steel guide cannula AG-12 was inserted into position in the upper part of the third ventricle. The stereotaxic coordinates were AP: +7.1 mm, L: 0.0 mm, H: +2.0 mm, from the interaural line, according to the atlas of Paxinos and Watson (1986). The guide cannula was secured to the skull with instant adhesive, dental cement, and the anchor screws. A stainless-steel dummy cannula AD-12 (0.35 mm outside diameter, by Eicom) was then inserted into the guide cannula and secured with a cap nut (by Eicom). The rats were post-operatively housed in individual cages.
(§2) The animals were allowed to recover for about 1 week after the implantation of the guide cannulas, and blood samples were taken as they were allowed to move freely. The rats were then anesthetized with intraperitoneal administration of 50 mg/kg pentobarbital. […]

[2] = tested on: ACTH concentration in blood; assay: ACTH concentration in blood after intraventricular administration of PrRP-31; format: in vivo, Wistar rats; conditions: PrRP-31 1, 3 or 10 nmol intraventricular
Experimental: as §1, §2

[3] = plasma radioimmunoassay, 0-60 min

PrRP-31: amide form of the peptide consisting of the amino acid sequence in SEQ ID NO. 32 (SRTHRHSMEIRTPDINPAWYASRGIRPVGRF-NH2)
time of peak β-endorphin concentration in blood after dosing [1]: 15 min | β-endorphin concentration in blood compared to the control group [1, 3]: higher concentration-dependent increases | time of peak ACTH concentration in blood after dosing [2]: 15 min | ACTH concentration in blood compared to the control group [2, 3]: higher concentration-dependent increases
